From US10538522B2, “Brassinosteroid mimetics” (The Regents of the University of California, priority 2015, dated 2020) come the findings set out here.

Assay [1] has as its system bri1-6 mutant seedling. The experiment in a line: Growth of mutant seedling defective in brassinosteroid receptor BRI1 (FIG. 4). It counts as in vivo.
Assay [2] has as its system Arabidopsis seedlings. The experiment in a line: Hypocotyl length / plant height of seedlings treated with brassinosteroid mimetic (FIG. 1, FIG. 2). In kind it is in vivo. The following applies: versus untreated plants. On the procedure:
(A) Arabidopsis seedlings were grown for 7 days in light in the presence of increasing concentrations of a brassinosteroid mimetic of the disclosure. (B) a photo of seedlings grown at 0 and 20 μM of brassinosteroid mimetic.
The brassinosteroid mimetics of the disclosure were tested and shown to block ethylene response by hyperactivating brassinosteroid signaling. The application of any one of the brassinosteroid mimetics of the disclosure, which are all closely related, results in massive increases in plant size. […] Additionally, reduction of internal concentrations of brassinosteroids by inhibition of brassinosteroid biosynthesis reduces the effects of the mimetic on growth. In FIG. 1, one can see the promotive effects of F1874-0108 (inset), a brassinosteroid mimetic of the disclosure, on plant height, with chemical treated plants being almost 100% taller than untreated plants. Hyperactivation of brassinosteroid signaling represents an effective means to increase plant biomass and increase the capability of plants with regard to disease resistance and other brassinosteroid regulated phenomena.

Assay [3] has as its system seedlings treated with an inhibitor of BR synthesis (brassinazole). Description: Hypocotyl length of seedlings with brassinosteroid synthesis inhibited by brassinazole (FIG. 1, FIG. 3). In kind it is in vivo, Arabidopsis. On the procedure:
Seedlings were treated with an inhibitor of BR synthesis (brassinazole; (BZ)). […] This is not consistent with what is seen for Bikinin, which is a constitutive activator of BR signaling and would be independent of BR synthesis (i.e. treatment with BZ would not result in inhibition of hypocotyl length in the presence of BZ).
In FIG. 1, brassinosteroid production was limited by addition of brassinazole (BZ, which is a chemical inhibitor of brassinosteroid biosynthesis). […] In stark contrast, addition of brassinolide plus mimetic severely curtails this burst in growth because mimetic prevents the full inhibition of BIN2.

For the compound `O=C(O)CCC(=O)Nc1ccc(Br)cn1` [Bikinin], the “activation of BR pathway / hypocotyl growth” value in assay [1] was “promotion of long hypocotyls independent of BR”. Consider `CCOC(=O)CSc1ncnc2c1cnn2-c1ccccc1` [F1874-0108], for which the “plant height, chemical treated plants taller than untreated plants” value in assay [2] is listed as roughly 100%. The “seedling length versus BZ treated only” value in assay [3] (BZ treated, no exogenous brassinolide added) was “substantially longer”. On to `CC(C)[C@H](C)[C@@H](O)[C@H](O)[C@@H](C)[C@H]1CC[C@H]2[C@@H]3COC(=O)[C@H]4C[C@H](O)[C@H](O)C[C@]4(C)[C@H]3CC[C@]12C` [brassinolide], for which the “increase in length of BZ seedlings” value in assay [3] (BZ treated, exogenous brassinolide added back) is reported as roughly 400%.

For the compound `CC(O)(c1ccccc1)C(Cc1ccc(Cl)cc1)n1cncn1` (centres unmarked) [brassinazole], in assay [3] (FIG. 3, BZ alone), the hypocotyl length entry is “shortening of the hypocotyls”.
